The test system of series [1] is Normal human dermal fibroblasts (NHDF). The series can be described thus: Hyaluronic acid production promoting effect (ELISA of hyaluronic acid in supernatant). It counts as cell-based. To be noted: 10 mM or less, 48 hours, control group set to 100%, N=3. The procedure, abridged:
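NHDF seeded at 2.5×10^4 cells/well in D-MEM with 5% FBS, pre-incubated 24 h, then exposed to samples in serum-free D-MEM for 48 h. Supernatant hyaluronic acid measured by ELISA in triplicate, expressed as % of control (100%) at ≤10 mM sample.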

The test system of series [2] is Normal human dermal fibroblasts. The experiment in a line: Collagen production promoting effect (ELISA of free collagen in supernatant). The note with it: 10 mM or less, 48 hours, control group set to 100%, N=3. The series is classed as cell-based. As to the method: Normal human dermal fibroblasts were prepared in D-MEM containing 5% (v/v) fetal bovine serum to a cell density of 2.5×10^4 cells/well, and then pre-incubated for 24 hours on a 96-well plate. After removing the medium, samples prepared to a predetermined concentration in D-MEM containing 5% (v/v) fetal bovine serum were added to each well and cultured for 48 hours. After the culture was completed, the amount of free collagen in the supernatant was quantified by ELISA. Measurements were performed in triplicate (N=3).
The amount of collagen produced when the sample was measured at a concentration of 10 mM or less was compared with that of the control group, and the results (% values when the control group was set to 100%) are shown in Table 17 based on the following criteria.
For orientation: ELISA stands for enzyme-linked immunosorbent assay.

A short description of series [3]: Stability Test-1: coloration of 1% aqueous solutions adjusted to pH 7 stored at 50° C. The series is classed as physicochemical. To be noted: 1% aqueous solution pH 7, 50° C., 10 panelists. As to the method:
(§1) For each of the samples of Synthesis Examples 1 to 6, 1% aqueous solutions were adjusted to pH 3, 5, 7, 8, and 9 with a dilute potassium hydroxide aqueous solution, and then placed in 50 mL screw tubes and sealed. […] Furthermore, the odor and coloration of the samples adjusted to pH 7 were evaluated based on the following methods and criteria, and the results are shown in Table 11.
• Evaluation was made by 10 panelists according to the following criteria. • 3: Almost no change compared to immediately after preparation. • 2: Color changes compared to immediately after preparation. • 1: Strongly colored compared to immediately after preparation. • Based on the results of the above evaluation, the following classification was made: […]

Series [4] in a line: Stability Test-1: residual rate of 1% aqueous solutions stored at 50° C. (HPLC). To be noted: water, 1% aqueous solution; for remaining at 336 h: after 2 weeks, read-out: Residual Rate; for remaining at 672 h: after 4 weeks. The series is classed as physicochemical.
A short description of series [5]: Stability Test-1: odor of 1% aqueous solutions adjusted to pH 7 stored at 50° C. The series is classed as physicochemical. To be noted: 1% aqueous solution pH 7, 50° C., 10 panelists. As to the method:
as §1
• Evaluation was made by 10 panelists according to the following criteria. • 3: Almost odorless. • 2: There is a slight strange odor. • 1: A strong odor is detected. • Based on the results of the above evaluation, the following classification was made: • ◯: Total score of 10 panelists is 25 or more • Δ: Total score of 10 panelists is 16-24 • x: The total score of 10 panelists is 15 or less

The nature of series [6]: Stability Test-2: odor of cream stored at 50° C. To be noted: 10 panelists. The series is classed as physicochemical. The procedure, abridged:
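Test creams were made by heating and mixing components (a) and (b), cooling, then adding component (c) to give a pH of 7 or 9. After storage at 50° C., 10 panelists scored odor: 3 almost odorless, 2 slight strange odor, 1 strong odor. Totals were graded ◯ (25 or more), Δ (16-24) or x (15 or less).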

For series [7], the system named is Normal human epidermal keratinocytes. The experiment in a line: Antioxidant effect: ROS production inhibition rate (DCFHDA, H2O2). The series is classed as cell-based. To be noted: 10 mM or less, 24 hours incubation, 0.2 mM H2O2, N=4. As to the method:
Normal human epidermal keratinocytes were seeded onto a 96-well plate using KG2 medium at a cell density of 2.0×10^4 cells/well. After 24 hours of pre-incubation, samples adjusted to a predetermined concentration in KG2 medium were added to each well. After 24 hours of incubation, the medium was removed, followed by washing with HBSS(−) and the incorporation of the ROS-reactive fluorescent probe DCFHDA for 30 minutes. The cells were again washed with HBSS(−), treated with 0.2 mM H2O2, and incubated for 2 hours. The fluorescence intensity was measured, and the amount of ROS produced per unit protein was calculated by dividing the fluorescence intensity by the amount of protein quantified by the BCA method, resulting in an analytical value of 1. Furthermore, the amount of ROS production calculated without adding the sample adjusted to a predetermined concentration using the above test method was set to analytical value 2; and the amount of ROS production calculated without adding the sample or 0.2 mM H2O2 was set to analytical value 3.
ROS production inhibition rate (%) was calculated using the following formula. The higher the ROS production inhibition rate, the greater the antioxidant effect can be evaluated to be.
The ROS production inhibition rate when the sample was measured at a concentration of 10 mM or less was evaluated as follows. Note that the measurement was performed in N=4.

A short description of series [8]: Stability Test-2: coloration of cream stored at 50° C. The series is classed as physicochemical. The note with it: 10 panelists. An outline of the steps:
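Creams were made by heating and mixing parts (a) and (b), cooling, then adding part (c), adjusting pH to 7 or 9. After storage at 50° C., ten panelists scored coloration against the freshly prepared cream: 3 for almost no change, 2 for color change, 1 for strong coloration.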

Series [9] is described as follows: Stability Test-2: residual rate in cream of pH 7 or 9 stored at 50° C. The series is classed as physicochemical. An outline of the steps:
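Each test sample was formulated into a cream adjusted to pH 7 or 9: components (a) and (b) were heated and mixed separately, cooled, and then component (c) was added. The cream was held at 50° C., and the percentage of the sample compound still present (residual rate) was determined after storage.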

The mark [10] stands for this setting: cream pH 7, 50° C., after 2 weeks, 20160 min.
Where [11] appears, read: cream pH 7, 50° C., after 4 weeks, 40320 min.
Setting [12] is: cream pH 9, 50° C., after 2 weeks, 20160 min.
Where [13] appears, read: cream pH 9, 50° C., after 4 weeks, 40320 min.

The results in this text go back to US20260294769A1, “ASCORBIC ACID DERIVATIVES AND COSMETIC THEREOF” (SEIWA KASEI COMPANY, LIMITED, priority 2023, published 2026).

Each structure is given as a SMILES string. Like-named read-outs stand apart in the source and are kept apart here.

On to `O=C1OC(C(O)CO)C2=C1OCCCO2` (stereo not drawn) [Synthesis Example 2, 2,3-O-(1,3-propanediyl) ascorbic acid], for which the “Hyaluronic acid production-promoting effect” value in series [1] is on record as “++ (120%<)”. In series [2], the Collagen production-promoting effect result is on record as “++ (140%<)”. The Coloration result in [3] (after 2 weeks) and in series [3] (after 4 weeks) was “∘ (Total score of 10 panelists is 25 or more)” throughout. Also, the remaining at 336 h in series [4] (pH 3, 50° C.) was not below 80%; in [4] (pH 5, 50° C.) it was not below 80%; in series [4] (pH 7, 50° C.), not below 80%; in series [4] (pH 8, 50° C.), not below 80%; in series [4] (pH 9, 50° C.) it was 50 to 80%. For the same compound, the remaining at 672 h in series [4] (pH 3, 50° C.) is not below 80%; in [4] (pH 5, 50° C.) it was not below 80%; in series [4] (pH 7, 50° C.), not below 80%; in series [4] (pH 8, 50° C.), 50 to 80%; in series [4] (pH 9, 50° C.), 30 to 50%. The Odor result is on record as “∘ (Total score of 10 panelists is 25 or more)” in series [5] (after 2 weeks) and “Δ (Total score of 10 panelists is 16-24)” in series [5] (after 4 weeks).
Regarding `O=C1OC(C(O)CO)C2=C1OCC1(COC1)CO2` (stereo not drawn) [Synthesis Example 6, 2,3-O-(3,3-dimethyleneoxetane) ascorbic acid], the “Hyaluronic acid production-promoting effect” value in series [1] was “++ (120%<)”. The Collagen production-promoting effect result in [2] is listed as “++ (140%<)”. Besides, the Coloration result in series [3] (after 2 weeks) and in series [3] (after 4 weeks) was “∘ (Total score of 10 panelists is 25 or more)” each time. Moreover, the remaining at 336 h in [4] (pH 3, 50° C.) was not below 80%; in series [4] (pH 5, 50° C.), not below 80%; in series [4] (pH 7, 50° C.), 50 to 80%; in series [4] (pH 8, 50° C.) it was 50 to 80%; in series [4] (pH 9, 50° C.), 50 to 80%. The remaining at 672 h was not below 80% in series [4] (pH 3, 50° C.); not below 80% in series [4] (pH 5, 50° C.); 50 to 80% in series [4] (pH 7, 50° C.); 30 to 50% in series [4] (pH 8, 50° C.); 30 to 50% in series [4] (pH 9, 50° C.). Moreover, the Odor entry in [5] (after 2 weeks) and in series [5] (after 4 weeks) was “∘ (Total score of 10 panelists is 25 or more)” throughout.
Turning to `CCCCCCCCCCCC(=O)OCC(O)C1OC(=O)C2=C1OCCCCO2` (stereo not drawn) [Synthesis Example 13, 6-O-lauroyl-2,3-O-(1,4-butanediyl) ascorbic acid], the Odor result in series [6] (after 2 weeks) is listed as “◯ (Total score of 10 panelists is 25 or more)”; in series [6] (after 4 weeks) it was “Δ (Total score of 10 panelists is 16-24)”. Besides, the “Antioxidant effect (ROS production inhibition rate)” value in [7] is listed as “+ (<20%)”. The “Hyaluronic acid production-promoting effect” value in series [1] is “++ (120%<)”. The Coloration result in series [8] (after 2 weeks) and in series [8] (after 4 weeks) was “◯ (Total score of 10 panelists is 25 or more)” throughout. Further, the “Residual Rate” value in series [9] (setting [10]), in series [9] (setting [11]), in series [9] (setting [12]) and in series [9] (setting [13]) was “⊚ (95% or more)” throughout.
Consider `CCCCCCCCCCCC(=O)OCC(OC(=O)CCCCCCCCCCC)C1OC(=O)C2=C1OCCCCO2` (stereo not drawn) [Synthesis Example 14, 5,6-O-dilauroyl-2,3-O-(1,4-butanediyl) ascorbic acid], for which the Odor entry is recorded as “◯ (Total score of 10 panelists is 25 or more)” in [6] (after 2 weeks) and “Δ (Total score of 10 panelists is 16-24)” in [6] (after 4 weeks). Moreover, the “Antioxidant effect (ROS production inhibition rate)” value in series [7] was “+ (<20%)”. In [1], the “Hyaluronic acid production-promoting effect” value is “++ (120%<)”. In addition, the Coloration result in series [8] (after 2 weeks) and in [8] (after 4 weeks) was “◯ (Total score of 10 panelists is 25 or more)” throughout. The “Residual Rate” value is on record as “⊚ (95% or more)” in [9] (setting [10]); “⊚ (95% or more)” in series [9] (setting [11]); “⊚ (95% or more)” in [9] (setting [12]); “∘ (85% or more, less than 95%)” in [9] (setting [13]).
Turning to `CCCCCCCC(=O)OCC(OC(=O)CCCCCCC)C1OC(=O)C2=C1OCCCO2` (stereo not drawn) [Synthesis Example 23, 5,6-O-dioctanoyl-2,3-O-(1,3-propanediyl) ascorbic acid], the results for the Odor entry in [6] (after 2 weeks) and in [6] (after 4 weeks) were “◯ (Total score of 10 panelists is 25 or more)” and “Δ (Total score of 10 panelists is 16-24)”, respectively. The “Antioxidant effect (ROS production inhibition rate)” value in series [7] was “+ (<20%)”. For the same compound, in series [2], the Collagen production-promoting effect entry was “++ (140%<)”. In addition, the Coloration entry in series [8] (after 2 weeks) and in series [8] (after 4 weeks) was “◯ (Total score of 10 panelists is 25 or more)” throughout. The “Residual Rate” value in series [9] (setting [10]), in series [9] (setting [11]), in series [9] (setting [12]) and in series [9] (setting [13]) was “⊚ (95% or more)” throughout.
`CCCCCCCCCCCCCCCC(=O)OCC(OC(=O)CCCCCCCCCCCCCCC)C1OC(=O)C2=C1OCCCO2` (stereo not drawn) [Synthesis Example 27, 5,6-O-dipalmitoyl-2,3-O-(1,3-propanediyl) ascorbic acid]: the Odor entry is “◯ (Total score of 10 panelists is 25 or more)” in series [6] (after 2 weeks) and “Δ (Total score of 10 panelists is 16-24)” in series [6] (after 4 weeks). In series [1], the “Hyaluronic acid production-promoting effect” value was “++ (120%<)”. The Collagen production-promoting effect result in [2] was “++ (140%<)”. Further, the Coloration result in series [8] (after 2 weeks) is reported as “◯ (Total score of 10 panelists is 25 or more)”; in series [8] (after 4 weeks), “Δ (Total score of 10 panelists is 16-24)”. The “Residual Rate” value in series [9] (setting [10]), in series [9] (setting [11]), in series [9] (setting [12]) and in series [9] (setting [13]) was “⊚ (95% or more)” each time.
